One test has as its target T1, Corticotropin-releasing factor receptor 1 (Homo sapiens, UniProt P34998).
T1 sequence (P34998 whole entry): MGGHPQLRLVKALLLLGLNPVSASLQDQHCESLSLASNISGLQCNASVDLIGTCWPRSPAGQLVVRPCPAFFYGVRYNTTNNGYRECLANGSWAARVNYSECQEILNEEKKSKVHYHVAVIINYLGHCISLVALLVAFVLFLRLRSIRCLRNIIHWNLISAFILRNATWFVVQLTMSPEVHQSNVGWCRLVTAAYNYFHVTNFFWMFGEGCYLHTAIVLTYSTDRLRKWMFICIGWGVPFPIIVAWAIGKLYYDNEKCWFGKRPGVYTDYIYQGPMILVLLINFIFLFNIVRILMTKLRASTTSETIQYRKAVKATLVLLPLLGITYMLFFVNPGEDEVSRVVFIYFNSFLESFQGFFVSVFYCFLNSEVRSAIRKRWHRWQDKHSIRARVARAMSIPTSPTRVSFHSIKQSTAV
Kind of test: Binding affinity towards Corticotropin releasing factor receptor 1 was measured through displacement of [125I]sauvagine expressed in HEK293 cells. In kind it is cell-based.
Regarding `CCCN(CCOC)c1cc(C)nc2c(-c3ccc(Cl)cc3Cl)nn(C)c12`, the inhibitory constant (Ki) – broadly, the equilibrium dissociation constant of an inhibitor or competing ligand from its target – was found to be 5.1 nM. On the same count and under the same terms, then `COCCN(CC(C)C)c1cc(C)nc2c(-c3ccc(Cl)cc3Cl)nn(C)c12`, with 10.5 nM.

`CCCCCN(CCOC)c1cc(C)nc2c(-c3ccc(Cl)cc3Cl)nn(C)c12`: affinity was put at a Ki of 6.7 nM. Against the preceding compound, the Ki is about 1.6-fold lower. On the same count and under the same terms, then `CCCN(CCCOC)c1cc(C)nc2c(-c3ccc(Cl)cc3Cl)nn(C)c12`, with 9.8 nM. Same read-out and setting: then `CCCCN(CCCC)c1cc(C)nc2c(-c3ccc(C)cc3Cl)nn(C)c12`, with 2.8 nM; and `CCCCCCN(CCOC)c1cc(C)nc2c(-c3ccc(Cl)cc3Cl)nn(C)c12`, with 4 nM. On the same count and under the same terms, for `CCCCCN(CCC)c1cc(C)nc2c(-c3ccc(Cl)cc3Cl)nn(C)c12` the value was 1.2 nM; for `CCCCCN(CC1CC1)c1cc(C)nc2c(-c3ccc(Cl)cc3Cl)nn(C)c12`, 1.5 nM. For the compound `CCCC(CO)Nc1cc(C)nc2c(-c3ccc(Cl)cc3Cl)nn(C)c12` (stereo unspecified), the Ki is 62 nM. This Ki lies about 41-fold higher than the previous one. Take `CCCCN(CCCC)c1cc(C)nc2c(-c3ccc(Cl)cc3)nn(C)c12`: the Ki stood at 340 nM. Compound `CCCCN(CCOC)c1cc(C)nc2c(-c3ccc(Cl)cc3Cl)nn(C)c12` came in with a Ki of 10.4 nM. Compared with the last compound, the Ki is about 33-fold lower. Compound `CCCCN(CCc1ccccn1)c1cc(C)nc2c(-c3ccc(Cl)cc3Cl)nn(C)c12` gave an inhibition constant Ki of 13 nM. Turning to `CCCCNc1cc(C)nc2c(-c3ccc(Cl)cc3Cl)nn(C)c12`, affinity was put at a Ki of 170 nM. This Ki lies about 13-fold higher than the previous one. Still for that read-out and setting: then `CCCCN(CCCC)c1cc(C)nc2c(-c3ccc(OC)cc3Cl)nn(C)c12`, with 4.8 nM; and `CCCN(C)c1cc(C)nc2c(-c3ccc(Cl)cc3Cl)nn(C)c12`, with 24 nM; and `CCCN(CC)c1cc(C)nc2c(-c3ccc(Cl)cc3Cl)nn(C)c12`, with 4.1 nM. For `CCCCN(CCSC)c1cc(C)nc2c(-c3ccc(Cl)cc3Cl)nn(C)c12`, the inhibition constant (Ki) turned out to be 1.4 nM. On the same count and under the same terms, for `CCN(CCCOC)c1cc(C)nc2c(-c3ccc(Cl)cc3Cl)nn(C)c12` the value was 12.5 nM. On to `CCCN(Cc1ccc(O)cc1)c1cc(C)nc2c(-c3ccc(Cl)cc3Cl)nn(C)c12`, for which the inhibition constant (Ki) came to 13 nM. On the same count and under the same terms, then `COCCN(CCOC)c1cc(C)nc2c(-c3ccc(Cl)cc3Cl)nn(C)c12`, with 8.2 nM; and `CCCCN(CCCC)c1cc(C)nc2c(-c3c(C)cc(C)cc3Cl)nn(C)c12`, with 2.1 nM. Regarding `CCCCN(Cc1ccncc1)c1cc(C)nc2c(-c3ccc(Cl)cc3Cl)nn(C)c12`, the Ki stood at 68 nM. `CCN(CCOC)c1cc(C)nc2c(-c3ccc(Cl)cc3Cl)nn(C)c12` displayed a Ki of 3.2 nM. Still for that read-out and setting: for `CCCCN(CCCC)c1cc(C)nc2c(-c3c(C)cc(C)cc3C)nn(C)c12` the value was 5.1 nM; for `CCCCN(CC1CCCN1C)c1cc(C)nc2c(-c3ccc(Cl)cc3Cl)nn(C)c12` (stereo unspecified), 380 nM; for `CCCCCN(CC)c1cc(C)nc2c(-c3ccc(Cl)cc3Cl)nn(C)c12`, 1.3 nM.

As to `CCCCN(c1cc(C)nc2c(-c3ccc(Cl)cc3Cl)nn(C)c12)C(CC)CC`, the affinity, expressed as Ki, was 7 nM. On the same count and under the same terms, for `Cc1cc(NCc2ccc(O)cc2)c2c(n1)c(-c1ccc(Cl)cc1Cl)nn2C` the value was over 10000 nM; for `CCCCCCN(CC1CC1)c1cc(C)nc2c(-c3ccc(Cl)cc3Cl)nn(C)c12`, 1 nM; for `CCCCN(CCc1ccncc1)c1cc(C)nc2c(-c3ccc(Cl)cc3Cl)nn(C)c12`, 34 nM. Same read-out and setting: for `Cc1cc(N(CC(C)C)CC2CC2)c2c(n1)c(-c1ccc(Cl)cc1Cl)nn2C` the value was 3.7 nM.

Compound `CCCCCN(CCCC)c1cc(C)nc2c(-c3ccc(Cl)cc3Cl)nn(C)c12` registered a Ki of 0.9 nM. The compound `CCCN(CCO)c1cc(C)nc2c(-c3ccc(Cl)cc3Cl)nn(C)c12` gave a Ki of 4.4 nM. On the same count and under the same terms, for `CCCCN(CC1CCCO1)c1cc(C)nc2c(-c3ccc(Cl)cc3Cl)nn(C)c12` (stereo unspecified) the value was 11.2 nM.

`CCCCN(CC1CC1)c1cc(C)nc2c(-c3ccc(Cl)cc3Cl)nn(C)c12` displayed a Ki of 1.3 nM. In turn, `CCCCN(CCCOC)c1cc(C)nc2c(-c3ccc(Cl)cc3Cl)nn(C)c12` showed an inhibitory constant (Ki) of 18 nM. Still for that read-out and setting: then `COCCN(c1cc(C)nc2c(-c3ccc(Cl)cc3Cl)nn(C)c12)C(C)C`, with 9.7 nM. Same read-out and setting: then `CCN(CC1CC1)c1cc(C)nc2c(-c3ccc(Cl)cc3Cl)nn(C)c12`, with 4.4 nM. Still for that read-out and setting: for `COCCN(C)c1cc(C)nc2c(-c3ccc(Cl)cc3Cl)nn(C)c12` the value was 32 nM.

The next test deals with T1, Corticotropin-releasing factor receptor 1. Briefly: Inhibition of (Corticotropin-Releasing Factor Receptor) CRF-stimulated cAMP production. It is filed as functional. (Cyclic AMP is a second messenger, typically raised through Gs and lowered through Gi signalling.)
As to `CCCN(CC1CC1)c1cc(C)nc2c(-c3ccc(Cl)cc3Cl)nn(C)c12`, the IC50 – broadly, the concentration that inhibits the measured activity by half – was determined as 16 nM.

For the next test the target is unchanged. Briefly: Inhibition of Corticotropin releasing factor receptor 1-stimulated cAMP production. It is filed as functional.
In turn, `CCCN(CCOC)c1cc(C)nc2c(-c3ccc(Cl)cc3Cl)nn(C)c12` came in with an IC50 of 36 nM.

On to `CCCCN(CCCC)c1cc(C)nc2c(-c3ccc(Cl)cc3Cl)nn(C)c12`, for which the IC50 turned out to be 5 nM. This IC50 lies about 7.2-fold lower than the previous one. On the same count and under the same terms, then `COCCN(CCOC)c1cc(C)nc2c(-c3ccc(Cl)cc3Cl)nn(C)c12`, with 38 nM. The same measure, in the same setting: then `CCN(CCOC)c1cc(C)nc2c(-c3ccc(Cl)cc3Cl)nn(C)c12`, with 15 nM; and `CCCN(CCO)c1cc(C)nc2c(-c3ccc(Cl)cc3Cl)nn(C)c12`, with 18 nM. The same measure, in the same setting: then `CCCCN(CC1CC1)c1cc(C)nc2c(-c3ccc(Cl)cc3Cl)nn(C)c12`, with 3 nM.

(Values after ChEMBL document CHEMBL1136253 (Bioorg Med Chem Lett, 2003).)
